Test results published in US20220275534A1, “Peptide Library Production Method” (The University of Tokyo, priority 2018, published 2022).
Positions of bridges follow the written chain, without caps; N, C: chain ends. Non-standard residues stand in square brackets, D forms with d. No end group written: not given here.

Key:
[1] = tested on: OltF; test: Prenylation of Trp present at N terminal with OltF (Example 23); assay type: biochemical, Planktothrix; conditions: 100 μM OltF, 2.1 mM DMAPP, 37° C., 18 hours (FIG. 19, FIG. 20)
OltF, sequence (as listed by the source): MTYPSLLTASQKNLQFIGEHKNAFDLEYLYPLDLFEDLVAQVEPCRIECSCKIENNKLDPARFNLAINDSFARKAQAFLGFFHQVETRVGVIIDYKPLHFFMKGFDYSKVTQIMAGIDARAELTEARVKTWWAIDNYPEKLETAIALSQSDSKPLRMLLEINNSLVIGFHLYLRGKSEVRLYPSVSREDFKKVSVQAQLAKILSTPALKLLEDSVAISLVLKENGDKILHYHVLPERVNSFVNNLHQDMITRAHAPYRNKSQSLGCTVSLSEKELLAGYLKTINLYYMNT
Protocol: The cyclic peptide shown below was obtained by translation and synthesis under the following (Conditions 32) in the artificial translation system developed by the present inventors. The translated mixture thus obtained was then reacted (prenylated) under the following (Conditions 33).
(Conditions 32) • 19aa-mix (19 kinds of proteinogenic amino acids other than M)]: 0.5 mM • ClAc-D-Tyr-tRNA^fMetCUA: 50 μM • Reaction: 37° C. and 30 minutes in an artificial translation-system solution. • Scale: 2.5 μL scale
(Conditions 33) • Translated mixture amount: 2.5 μL (mixture obtained under (Conditions 32)) • OltF: 100 μM • DMAPP: 2.1 mM • Reaction: 37° C., 18 hours • Scale: 5.7 μL scale

[2] = tested on: KgpF immobilized onto magnetic beads; test: Modification of artificial cyclic peptides with KgpF immobilized onto magnetic beads, solid phase (Example 18; Table 17); assay type: biochemical, Microcystis aeruginosa; set-up: key: 5: strong intensity; 4: medium intensity; 3: weak intensity; 2: very weak intensity; 1: no peak; N/A: not observed; conditions: KgpF Solid phase (magnetic beads) 72 μM, 4° C., 14 hours
KgpF immobilized onto magnetic beads, sequence (as listed by the source): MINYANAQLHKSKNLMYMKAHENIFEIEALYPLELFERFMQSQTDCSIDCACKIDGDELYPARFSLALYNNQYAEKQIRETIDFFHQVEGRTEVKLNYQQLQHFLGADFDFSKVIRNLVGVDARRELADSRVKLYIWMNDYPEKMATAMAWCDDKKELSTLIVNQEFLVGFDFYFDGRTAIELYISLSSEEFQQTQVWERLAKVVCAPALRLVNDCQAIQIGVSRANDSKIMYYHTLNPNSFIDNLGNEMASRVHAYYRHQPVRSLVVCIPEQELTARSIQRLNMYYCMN
Excerpt: Dynabeads His-Tag Isolation and Pulldown (Invitrogen) was brought into contact with KgpF having a His-tag added N terminal and the KgpF was immobilized onto the magnetic beads. […] When it exceeded a predetermined amount, immobilization reached saturation.
(§1) The artificial cyclic peptides shown in Table were synthesized under (Conditions 25) and were brought into contact with KgpF in solid phase under (Conditions 26). In addition, the same peptides were reacted in liquid phase under conditions shown in (Conditions 13) and (Conditions 14) except that the prenylation reaction time was changed to 14 hours.
(Conditions 25) • FIT system: v8s/v11.1 • 19aa-Met: 0.5 mM • ClAc-D-Tyr-tRNA^fMetCUA: 90 μM • Reaction: 37° C., 60 min. • Scale: 2.5 μL scale
(§2) After the above reaction was performed, the reaction product was incubated at 25° C. for 12 minutes.
(§3) Then, a cyclization reaction was performed under the following conditions. • Translated mixture amount: 2.5 μL (mixture obtained by the above reaction) • EDTA: 18 mM • Reaction: 42° C., 60 min. • Scale: 2.75 μL scale
(Conditions 26) • Translated mixture amount: 2.75 μL (mixture obtained under (Conditions 25)) • KOH: 6.0 mM • Mg(OAc)2: 9.0 mM • Tris-HCl (pH 8.3) 15 mM • KgpF immobilized onto magnetic beads: 72 μM • DMAPP: 2 mM • Reaction: 4° C., 14 hours, rotation mixing

[3] = tested on: KgpF; test: Modification of the same peptides with KgpF in liquid phase, Conditions 13/14 with 14 hours (Example 18; Table 17); assay type: biochemical, Microcystis aeruginosa; set-up: key: 5: strong intensity; 4: medium intensity; 3: weak intensity; 2: very weak intensity; 1: no peak; N/A: not observed; conditions: KgpF Liquid phase 160 μM
Protocol: (Conditions 13) • FIT system: v8s/v11.0 • 19aa-Met: 0.5 mM • ClAc-D-Tyr-tRNA^fMetCUA: 90 μM • Reaction: 37° C., 60 min. • Scale: 2.5 μL scale
as §2, §3
(Conditions 14) • Translated mixture amount: 2.75 μL (mixture obtained under (Conditions 13)) • KOH: 6.0 mM • Mg(OAc)2: 9.0 mM • Tris-HCl (pH 8.3) 15 mM • KgpF: 160 μM • DMAPP: 2 mM • Reaction: 0° C., 20 hours
as §1

[4] = biological target: MetAP1 (Homo sapiens, UniProt P53582); test: MetAP1 inhibition test of prenylated cyclic peptide (probe fluorescence); assay type: biochemical; conditions: prenylated peptide at 1 μM, 5 μM or 10 μM; cofactor Mn2+ or Co2+ 100 μM; MetAP1 1 μM; 37° C., 120 min (FIG. 13)
Protocol: A MetAP1 inhibition test was performed in vitro using the prenylated Met2, Met3a-L, and Met3-1 at concentrations of 1 μM, 5 μM or 10 μM in the presence of a MetAP1 cofactor Mn^2+ or Co^2+. In the test, enzymatic activity was measured by detecting probe fluorescence, that is, fluorescence emitted depending on the enzymatic activity of MetAP1.
(Conditions) • Scale: 20 μL • Cyclic peptide: 1, 5, 10 μM • MnCl2 or CoCl2: 100 μM • MetAP1 enzymatic activity probe: 1 μM • MetAP1: 1 μM • Tris (pH7.6): 25 mM • NaCl: 75 mM • Reaction: 37° C., 120 min.
After the reaction, the fluorescence intensity of the probe was measured using a plate reader.

[5] = tested on: KgpF; test: Prenylation of translated thioether-closed artificial cyclic peptides with KgpF, MALDI-TOF-MS analysis (Examples 1-9; 37° C., 18 hours); assay type: biochemical, Microcystis aeruginosa; conditions: Examples 4-7: 160 μM KgpF, 2 mM DMAPP
Protocol: With regards to each of KgpF and OltF, heterogeneous co-expression of a gene synthesized after optimizing the codon of a gene derived from a producing strain was performed in Escherichia coli, followed by purification to obtain a prenylation enzyme.
The analysis was performed using UltrafleXtreme (Bruker Daltonics) or Autoflex II (Bruker Daltonics) and peptide calibration standard II (Bruker Daltonics).
In short, six kinds in total of peptides were obtained by translation and synthesis under (Conditions 1) of the artificial translation system developed by the present inventors. The peptides thus obtained were then reacted with 14.7 μM KgpF at 37° C. for 18 hours in the system shown in (Conditions 2). “DMAPP” used in (Conditions 2) is dimethylallyl pyrophosphoric acid.
(Conditions 1) • FIT system: v7s/v8.0.3 • 19aa-Met: 0.5 mM • ClAc-D or L-Trp-tRNA^fMetCUA: 90 μM • Reaction: 37° C., 60 min. • Scale: […] scale
(Conditions 2) • Translated mixture amount: 2.5 μL (mixture obtained under (Conditions 1)) • KgpF: 14.7 μM • DMAPP: 2 mM • Total amount: 15.7 μL • Reaction: 37° C., 18 hours
The YG280 sequences having the steric configuration of the N terminal Trp serving as an initiation residue of D-form and those of L-form were synthesized, so that two kinds of peptides were prepared in total. These two kinds of artificial cyclic peptides were obtained by translation and synthesis in the artificial translation system (Conditions 3) developed by the present inventors. The peptides thus obtained were then reacted with 53, 160, and 580 μM KgpF in a system shown in (Conditions 4) at 37° C. for 18 hours.
(Conditions 3) • FIT system: v7s/v8.0.3 • 19aa-Met: 0.5 mM • ClAc-D or L-Trp-tRNA^fMetCUA: 120 μM • Reaction: 37° C., 3 hours • Scale: 2.5 μL scale
(Conditions 4) • Translated mixture amount: 2.5 μL (mixture obtained under (Conditions 3)) • KgpF: 53, 160, 580 μM • DMAPP: 2 mM • Reaction: 37° C., 18 hours
(§4) The above three kinds of artificial cyclic peptides were obtained by translation and synthesis in the artificial translation system (Conditions 5) developed by the present inventors. The peptides thus obtained were then reacted with KgpF in the system shown below in (Conditions 6) at 37° C. for 18 hours.
(Conditions 5) • FIT system: v7s/v8.0.3 • 19aa-Met: 0.5 mM • ClAc-D or L-Trp-tRNA^fMetCUA: 90 μM • Reaction: 37° C., 60 min. • Scale: 2.5 μL scale
(Conditions 6) • Translated mixture amount: 2.5 μL (mixture obtained under (Conditions 5)) • KgpF: 160 or 580 μM • DMAPP: 2 mM • Reaction: 37° C., 18 hours
as §4, with “six” for “three”, “7)” for “5)”, “with 160 μM” for “with”, “shown” for “shown below”, “8)” for “6)”
(Conditions 7) • FIT system: v7s/v9.1 • 19aa-Met: 0.5 mM • ClAc-D-Tyr-tRNA^fMetCUA: 90 μM • Reaction: 37° C., 60 min. • Scale: 2.5 μL scale
(Conditions 8) • Translated mixture amount: 2.5 μL (mixture obtained under (Conditions 7)) • KgpF: 160 μM • DMAPP: 2 mM • Reaction: 37° C., 18 hours
as §4, with “9)” for “5)”, “with 160 μM” for “with”, “shown” for “shown below”, “10)” for “6)”
(Conditions 9) • FIT system: v7s/v9.1 • 19aa-Met: 0.5 mM • ClAc-D-Tyr-tRNA^fMetCUA: 90 μM • Reaction: 37° C., 60 min. • Scale: 2.5 μL scale
(Conditions 10) • Translated mixture amount: 2.5 μL (mixture obtained under (Conditions 9)) • KgpF: 160 μM • DMAPP: 2 mM • Reaction: 37° C., 18 hours
The above artificial cyclic peptides were obtained by translation and synthesis in the artificial translation system (Conditions 11) developed by the present inventors. […]

[6] = tested on: KgpF v 3.1; test: Prenylation of artificial cyclic peptides with 10 μM KgpF v 3.1 (Example 11; Table 7); assay type: biochemical, Microcystis aeruginosa; set-up: key: 5: strong intensity; 4: medium intensity; 3: weak intensity; 2: very weak intensity; 1: no peak; N/A: not observed; conditions: KgpF v 3.1 10 μM
Protocol: Reaction of the artificial cyclic peptide shown in Table 7 was made under conditions similar to (Conditions 11) and (Conditions 12) except that v8s/v11.1 was used as FIT system, KgpF v 3.1 was used as a prenylation modification enzyme, and the concentration of the KgpF v 3.1 was set at 10 μM. Here, KgpF v 3.1 is an enzyme having a higher purification degree and more improved specific activity than KgpF used under (Conditions 12).

AY015: cyclic peptide containing a Trp at N terminal position, SEQ ID NO: 372 (WSNFRIARYSNSSC; also: cyclic)
prenylation modification with OltF (MALDI-TOF-MS) [1]: Trp at the N terminal position was prenylated

AY016: cyclic peptide containing a Trp at N terminal position, SEQ ID NO: 373 (WHDYRIARYHTYPC; also: cyclic)
prenylation modification with OltF (MALDI-TOF-MS) [1]: Trp at the N terminal position was prenylated

AY017: cyclic peptide containing a Trp at N terminal position, SEQ ID NO: 374 (WCDVSGRAGYFPC; also: cyclic)
prenylation modification with OltF (MALDI-TOF-MS) [1]: Trp at the N terminal position was prenylated

AY018: cyclic peptide containing a Trp at N terminal position, SEQ ID NO: 375 (WNNRERGSDDDAGGPC; also: cyclic)
prenylation modification with OltF (MALDI-TOF-MS) [1]: Trp at the N terminal position was prenylated

AY019: cyclic peptide containing a Trp at N terminal position, SEQ ID NO: 376 (WSNVSGRAGYFPC; also: cyclic)
prenylation modification with OltF (MALDI-TOF-MS) [1]: Trp at the N terminal position was prenylated

AY020: cyclic peptide containing a Trp at N terminal position, SEQ ID NO: 377 (WSNRERGSDDDAGGPC; also: cyclic)
prenylation modification with OltF (MALDI-TOF-MS) [1]: Trp at the N terminal position was prenylated

Clone-T2 (Ac-[dY]LVRERENTWKVTC; thioether (positions not given here); not fully specified (bridges))
Peak intensity, The number of prenyl groups added 0 [2]: 1
Peak intensity, The number of prenyl groups added 1 [2]: 5
Peak intensity, The number of prenyl groups added 0 [3]: 1
Peak intensity, The number of prenyl groups added 1 [3]: 4

Clone-V3 (Ac-[dY]VWNVKIKPKTTKC; thioether (positions not given here); not fully specified (bridges))
Peak intensity, The number of prenyl groups added 0 [2]: 1
Peak intensity, The number of prenyl groups added 1 [2]: 5
Peak intensity, The number of prenyl groups added 0 [3]: 1
Peak intensity, The number of prenyl groups added 1 [3]: 5

Met2: cyclic peptide SEQ ID NO: 361 from MetAP1 screening, Fmoc solid-phase synthesis, prenylated with KgpF (YKRRHCLPPAWG; also: cyclic, ring not given here, prenylated with KgpF)
inhibition of the enzymatic activity of MetAP1 [4]: inhibit the enzymatic activity of MetAP1

YG289-S2iD7: cyclic peptide obtained by translation and synthesis ({CH2CO}-[dY]HDYRIWRYHTYPC; thioether N-14 (inferred))
prenylation modification with KgpF (MALDI-TOF-MS) [5]: modified with a prenyl group
Peak intensity, The number of prenyl groups added 0 [6]: 1
Peak intensity, The number of prenyl groups added 1 [6]: 5

YG292-PaktiL5: cyclic peptide obtained by translation and synthesis ({CH2CO}-[dY]IRRPWVPIIYLGC; thioether N-14 (inferred))
prenylation modification with KgpF (MALDI-TOF-MS) [5]: modified with a prenyl group
Peak intensity, The number of prenyl groups added 0 [6]: 1
Peak intensity, The number of prenyl groups added 1 [6]: 5

YG297-aMD4: cyclic peptide obtained by translation and synthesis ({CH2CO}-[dY]RQFNRRTHEVWNLDC; thioether N-16 (inferred))
prenylation modification with KgpF (MALDI-TOF-MS) [5]: modified with a prenyl group
Peak intensity, The number of prenyl groups added 0 [6]: 1
Peak intensity, The number of prenyl groups added 1 [6]: 5
